Experimental data: ChEMBL document CHEMBL1135350, “Synthesis of an arabinofuranosyl disaccharide photoaffinity probe for arabinosyltransferase activity in Mycobacterium tuberculosis” (Bioorg Med Chem Lett, 2002)

System: Mycobacterium tuberculosis
Test: Enzyme kinetic constant of compound for Arabinosyltransferase in Mycobacterium tuberculosis was determined

## [N-]=[N+]=Nc1cccc2c(S(=O)(=O)NCCOC3O[C@H](COC4O[C@H](CO)[C@@H](O)[C@H]4O)[C@@H](O)[C@H]3O)cccc12 (some centres not stated)
  Km: 3.07 mM
  Vmax (pM min-1 mg-1): 4.26
